# Laboratory results reported in article PMC4559964, “Cytotoxicity of selected Cameroonian medicinal plants and Nauclea pobeguinii towards multi-factorial drug-resistant cancer cells” (BMC Complementary and Alternative Medicine, 2015).
# Like-named read-outs stand apart in the source and are kept apart here.
# Columns and labels:
# [1] = system: drug-sensitive leukemia CCRF-CEM cells; assay: Resazurin reduction assay, cytotoxicity on CCRF-CEM; type: cell-based; details: Homo sapiens, 72 h, read-out: IC50 values of compounds / doxorubicin
# Protocol: (§1) The cell lines used in the present work, their origins and their treatments were previously reported. They include drug-sensitive leukemia CCRF-CEM cells, its multidrug-resistant subline CEM/ADR5000 cells, breast cancer MDA-MB-231-pcDNA3 cells, its resistant subline MDA-MB-231-BCRP clone 23) cells, colon HCT116 (p53^+/+) cancer cells, its knockout clones HCT116 (p53^−/−), glioblastoma U87MG cells, its resistant subline U87MG.ΔEGFR cells and normal AML12 hepatocytes. […] Breast cancer cells, transduced with control vector (MDA-MB-231-pcDNA3) or with cDNA for the breast cancer resistance protein BCRP (MDA-MB-231-BCRP clone 23), were maintained under standard conditions as described above for CCRF-CEM cells. Human wild-type HCT116 (p53^+/+) colon cancer cells as well as knockout clones HCT116 (p53^−/−) derived by homologous recombination were a generous gift from Dr. B. Vogelstein and H. Hermeking (Howard Hughes Medical Institute, Baltimore, MD). Human glioblastoma multiforme U87MG cells (non-transduced) and U87MG cell line transduced with an expression vector harboring an epidermal growth factor receptor (EGFR) gene with a genomic deletion of exons 2 through 7 (U87MG.ΔEGFR) were kindly provided by Dr. W. K. Cavenee (Ludwig Institute for Cancer Research, San Diego, CA). MDA-MB-231-BCRP, U87MG.ΔEGFR and HCT116 (p53^−/−) were maintained in DMEM medium containing 10 % FBS (Invitrogen) and 1 % penicillin (100 U/mL)-streptomycin (100 μg/mL) (Invitrogen) and were continuously treated with 800 ng/mL and 400 μg/mL geneticin, respectively. Normal AML12 heptocytes were obtained from the American Type Culture Collection (ATCC, USA). The above medium without geneticin was used to maintain MDA-MB-231, U87MG, HCT116 (p53^+/+) and AML12 cell lines. The cells were passaged twice weekly. All experiments were performed with cells in the logarithmic growth phase.
# (§2) The cytotoxicity of the tested samples was performed by resazurin reduction assay as we previously described. Briefly, adherent cells at 1 × 10^4 cells were allowed to attach overnight and were then treated with different concentrations of the studied samples. For suspension cells, aliquots of 2 × 10^4 cells per well were seeded in 96-well-plates in a final volume of 200 μL. […] After 72 h incubation and resazurin (Sigma-Aldrich, Schnelldorf, Germany) staining, fluorescence was measured on an Infinite M2000 Pro™ plate reader (Tecan, Crailsheim, Germany) using an excitation wavelength of 544 nm and an emission wavelength of 590 nm. Each assay was done at least two times, with six replicates each. IC50 values represent the sample concentration required to inhibit 50 % of cell proliferation and were calculated from a calibration curve by linear regression using Microsoft Excel.
# [2] = system: multidrug-resistant leukemia CEM/ADR5000 cells; assay: Resazurin reduction assay, cytotoxicity on CEM/ADR5000; type: cell-based; details: for IC50: Homo sapiens, read-out: IC50 values of compounds / doxorubicin; for degree of resistance: ratio IC50 CEM/ADR5000 / IC50 CCRF-CEM
# Protocol: as §1, §2
# [3] = system: breast cancer MDA-MB-231-pcDNA3 cells; assay: Resazurin reduction assay, cytotoxicity on MDA-MB231; type: cell-based; details: read-out: IC50 values of compounds / doxorubicin
# Protocol: as §1, §2
# [4] = system: MDA-MB-231-BCRP clone 23 cells; assay: Resazurin reduction assay, cytotoxicity on MDA-MB231/BCRP; type: cell-based; details: for IC50: MDA-MB-231/BCRP, 72 h, mean ± SD; for degree of resistance: ratio IC50 MDA-MB231/BCRP / IC50 MDA-MB231
# Protocol: (§3) The cell lines used in the present work, their origins and their treatments were previously reported. […] Human wild-type HCT116 (p53^+/+) colon cancer cells as well as knockout clones HCT116 (p53^-/-) derived by homologous recombination were a generous gift from Dr. B. […] (Howard Hughes Medical Institute, Baltimore, MD). Human glioblastoma multiforme U87MG cells (non-transduced) and U87MG cell line transduced with an expression vector harboring an epidermal growth factor receptor (EGFR) gene with a genomic deletion of exons 2 through 7 (U87MG.ΔEGFR) were kindly provided by Dr. W. K. Cavenee (Ludwig Institute for Cancer Research, San Diego, CA). MDA-MB-231-BCRP, U87MG.ΔEGFR and HCT116 (p53^-/-) were maintained in DMEM medium containing 10 % FBS (Invitrogen) and 1 % penicillin (100 U/mL)-streptomycin (100 μg/mL) (Invitrogen) and were continuously treated with 800 ng/mL and 400 μg/mL geneticin, respectively. Normal AML12 heptocytes were obtained from the American Type Culture Collection (ATCC, USA). The above medium without geneticin was used to maintain MDA-MB-231, U87MG, HCT116 (p53^+/+) and AML12 cell lines. The cells were passaged twice weekly. All experiments were performed with cells in the logarithmic growth phase. […] Briefly, adherent cells at 1 × 10^4 cells were allowed to attach overnight and were then treated with different concentrations of the studied samples. For suspension cells, aliquots of 2 × 10^4 cells per well were seeded in 96-well-plates in a final volume of 200 μL. […] After 72 h incubation and resazurin (Sigma-Aldrich, Schnelldorf, Germany) staining, fluorescence was measured on an Infinite […]TM plate reader (Tecan, Crailsheim, Germany) using an excitation wavelength of 544 nm and an emission wavelength of 590 nm. Each assay was done at least two times, with six replicates each.
# [5] = system: HCT116 (p53+/+) colon cancer cells; assay: Resazurin reduction assay, cytotoxicity on HCT116 (p53+/+); type: cell-based; details: Homo sapiens, read-out: IC50 values of compounds / doxorubicin
# Protocol: as §1, §2
# [6] = system: HCT116 (p53−/−) colon cancer cells; assay: Resazurin reduction assay, cytotoxicity on HCT116 (p53-/-); type: cell-based, human; details: for IC50: Homo sapiens, read-out: IC50 values of compounds / doxorubicin; for degree of resistance: ratio IC50 HCT116 (p53−/−) / IC50 HCT116 (p53+/+)
# Protocol: as §3
# [7] = system: glioblastoma multiforme U87MG cells; assay: Resazurin reduction assay, cytotoxicity on U87MG; type: cell-based; details: Homo sapiens, U-87 MG, 72 h, read-out: IC50 values of compounds / doxorubicin
# Protocol: as §1, §2
# U87MG.ΔEGFR cells = assay: Resazurin reduction assay, cytotoxicity on U87MG.ΔEGFR; type: cell-based, human; details: for IC50: Homo sapiens, 72 h, read-out: IC50 values of compounds / doxorubicin; for degree of resistance: ratio IC50 U87MG.ΔEGFR / IC50 U87MG
# Protocol: as §1, §2
# normal AML12 hepatocytes = assay: Resazurin reduction assay, cytotoxicity on normal AML12 hepatocytes; type: cell-based; details: Mus musculus, read-out: IC50 values of compounds / doxorubicin
# Protocol: as §1, §2
# [8] = system: eight tested cancer cell lines; assay: Resazurin reduction assay, summary over the panel of tested cell lines; type: cell-based
# Protocol: as §1, §2
# leukemia CCRF-CEM cells = assay: Preliminary cytotoxicity study at a single concentration on CCRF-CEM; type: cell-based; details: doxorubicin 10 μM, positive control
# Protocol: Briefly, adherent cells at 1 × 10^4 cells were allowed to attach overnight and were then treated with different concentrations of the studied samples. For suspension cells, aliquots of 2 × 10^4 cells per well were seeded in 96-well-plates in a final volume of 200 μL. […] Each assay was done at least two times, with six replicates each.
# [9] = Homo sapiens, MDA-MB-231, 72 h, MDA-MB231, 72 h, mean ± SD
# [10] = MDA-MB231/BCRP, read-out: IC50 values of compounds / doxorubicin
# [11] = HCT-116, HCT116 (p53+/+), 72 h, mean ± SD
# [12] = HCT-116, HCT116 (p53−/−), 72 h, mean ± SD
# [13] = all eight tested cancer cell lines, read-out: IC50 over all tested cell lines
# [14] = read-out: IC50 values of compounds / doxorubicin, MDA-MB231/BCRP
SMILES,IC50 ([1]; mean ± SD) [µM],"IC50 ([2]; CEM/ADR5000, 72 h, mean ± SD) [µM]","IC50 [3, 9] [µM]","IC50 [4, 10] [µM]","IC50 [5, 11] [µM]","IC50 [6, 12] [µM]","IC50 ([7]; U87MG, mean ± SD) [µM]","IC50 (U87MG.ΔEGFR cells; U87MG.ΔEGFR, mean ± SD) [µM]","IC50 (normal AML12 hepatocytes; AML12 normal hepatocytes, 72 h) [µM]","IC50 [8, 13] [µM]",degree of resistance [2],degree of resistance [6],degree of resistance (U87MG.ΔEGFR cells),degree of resistance [4],other results
"CC(=O)O[C@H]1CC[C@]2(C)[C@H]3C(=O)C=C4[C@@H]5[C@@H](C)[C@H](C)CC[C@]5(C)CC[C@@]4(C)[C@]3(C)CC[C@H]2C1(C)C [Compound 1, 3-acetoxy-11-oxo-urs-12-ene]",> 82.9,> 82.9,> 82.9,> 82.9,> 82.9,> 82.9,> 82.9,> 82.9,> 82.9,> 82.9,–,–,–,–,–
"O=C(O)/C=C/c1ccc(O)cc1 [Compound 2, p-coumaric acid]",> 244,> 244,> 244,–,> 244,> 244,> 244,> 244,> 244,> 244,–,–,–,–,"IC50 [4, 14]: > 244 µM"
"COC(=O)CC(O)(CC(=O)OC)C(=O)OC [Compound 3, citric acid trimethyl ester]",> 171,> 171,> 171,> 171,> 171,> 171,> 171,> 171,> 171,> 171,–,–,–,–,–
"Oc1ccc(/C=C/c2cc(O)cc(O)c2)cc1 [Compound 4, resveratrol]",28.2 ± 1.32,57.4 ± 3.67,< 23,–,73.7 ± 5.67,> 175,76.6 ± 4.92,28.4 ± 2.06,> 175,–,2.04,> 2.38,0.37,–,"IC50 ([3]; MDA-MB231, 72 h, mean ± SD): 19.9 ± 1.45 µM; IC50 ([8]; seven out of eight cell lines, read-out: IC50): < 175 µM"
"OC[C@H]1O[C@@H](Oc2cc(O)cc(/C=C/c3ccc(O)cc3)c2)[C@H](O)[C@@H](O)[C@@H]1O [Compound 5, resveratrol β-D-glucopyranoside]",25.1 ± 2.48,39.9 ± 2.91,97.6 ± 7.6,–,63.8 ± 4.61,47 ± 4.94,55.6 ± 3.73,47.6 ± 3.29,> 103,< 100,1.59,0.74,0.86,0.98,"IC50 [4, 14]: 95.6 ± 8.17 µM"
"C=C[C@H]1[C@H](O[C@@H]2O[C@H](CO)[C@@H](O)[C@H](O)[C@H]2O)OC=C2C(=O)N3CCc4c([nH]c5ccccc45)[C@@H]3C[C@H]21 [Compound 6, strictosamide]",–,–,–,78.3 ± 6.22,–,–,–,–,–,–,> 1.04,–,–,< 0.97,"IC50 [1]: 77.1 ± 5.87 µM; IC50 ([2]; ADR5000, 72 h): > 80.3 µM; IC50 ([3]; Homo sapiens, MDA-MB-231, 72 h): > 80.3 µM; IC50 ([5]; HCT-116, 72 h): > 80.3 µM; IC50 ([6]; HCT-116, 72 h): > 80.3 µM; IC50 [7]: > 80.3 µM; IC50 (U87MG.ΔEGFR cells): > 80.3 µM; IC50 (normal AML12 hepatocytes; AML12, 72 h): > 80.3 µM; IC50 ([8]; read-out: IC50): < 80.3 µM"
"COc1cccc2c1C(=O)c1c(O)c3c(c(O)c1C2=O)C[C@@](O)(C(=O)CO)C[C@@H]3O[C@H]1C[C@H](N)[C@H](O)[C@H](C)O1 [doxorubicin, Doxorubicin, reference compound]",0.2 ± 0.06,–,–,–,–,–,1.06 ± 0.15,6.11 ± 0.57,> 73.6,–,975.60,2.88,5.76,7.12,"IC50 ([3]; Homo sapiens, MDA-MB-231, MDA-MB231, 72 h, mean ± SD): 1.1 ± 0.28 µM; IC50 ([5]; HCT-116, 72 h): 1.41 ± 0.29 µM; IC50 ([6]; HCT-116, 72 h): 4.06 ± 0.07 µM; Growth percentage of CCRF-CEM leukemia cells (leukemia CCRF-CEM cells): 13.6%"
